Patent US20050272770A1, “Compositions and treatments for inhibiting kinase and/or HMG-CoA reductase” (priority 2004, published 2005)
Values joined by “and” are separate entries in the source; they are usually repeats but may differ in a detail not shown here. Equal values may be shown once. Where a name gives a salt, the structure may show the parent alone. Read-outs that look alike come from different tables or passages of the source. One block for each compound: values may come before it.

What was measured:
[1] = test system: oxazolone-induced mouse ear swelling; test: Model for inhibition of topical inflammation (oxazolone-induced mouse ear swelling); type: in vivo, BALB/c male mice; conditions: for % Inh. of oxazolone-induced mouse ear swelling: topical, ear thickness 24 hours after challenge
Experimental: Left ears were untreated. The thickness of both ears of each animal was measured with a Dyer model micrometer gauge 24 hours after oxazolone challenge, and the net increase in thickness of right ears versus left ears was calculated for each animal. Percent inhibition was calculated according to the formula: [(Iv−It)/Iv]×100, where Iv and It respectively refer to the average net increase in right ear thickness (mm) for vehicle and candidate compound treated mice.

[2] = biological target: T1, human recombinant p38α protein kinase (Homo sapiens, UniProt Q16539); test: Human p38α MAP kinase inhibition assay (cell-free, phosphorylation of myelin basic protein); type: biochemical
T1 construct: purchased UBI 14-251; host or cells: E. coli
Experimental: In vitro cell-free p38α MAP kinase inhibition assays were conducted by the method as described in Clerk et al., FEBS Lett., 426:93-96 (1998) for a number of lactones in formulas I/IIa/IIb. Briefly, human recombinant p38α protein kinase expressed in E. coli (UBI #14-251) was used. Myelin basic protein (MBP, UBI #13-110) was employed as substrate, and microtiter plate wells were coated with MBP (0.01 mg/ml) overnight at 4° C. Candidate compound and/or vehicle was preincubated with 0.075 μg/mL enzyme in modified HEPES buffer pH 7.4 at 25° C. for 15 minutes. The reaction was initiated by addition of 100 μM ATP and allowed to proceed for another 60 minutes. The reaction was terminated by aspirating the solution. Phosphorylated MBP was detected by incubation with a mouse monoclonal IgG2a anti-phosphoMBP antibody. Bound anti-phosphoMBP antibody was quantitated by incubation with a HRP conjugated goat anti-mouse IgG.

[3] = biological target: T2, rat liver HMG-CoA reductase (Rattus norvegicus, UniProt P51639); test: Cell-free HMG-CoA reductase assay; type: biochemical; conditions: concentration required to inhibit rat liver HMG-CoA reductase by 50%; read-out: IC50 HMG-CoA R
T2 construct: from tissue; host or cells: rat liver (per the results' head)
T2 sequence (P51639 1-887): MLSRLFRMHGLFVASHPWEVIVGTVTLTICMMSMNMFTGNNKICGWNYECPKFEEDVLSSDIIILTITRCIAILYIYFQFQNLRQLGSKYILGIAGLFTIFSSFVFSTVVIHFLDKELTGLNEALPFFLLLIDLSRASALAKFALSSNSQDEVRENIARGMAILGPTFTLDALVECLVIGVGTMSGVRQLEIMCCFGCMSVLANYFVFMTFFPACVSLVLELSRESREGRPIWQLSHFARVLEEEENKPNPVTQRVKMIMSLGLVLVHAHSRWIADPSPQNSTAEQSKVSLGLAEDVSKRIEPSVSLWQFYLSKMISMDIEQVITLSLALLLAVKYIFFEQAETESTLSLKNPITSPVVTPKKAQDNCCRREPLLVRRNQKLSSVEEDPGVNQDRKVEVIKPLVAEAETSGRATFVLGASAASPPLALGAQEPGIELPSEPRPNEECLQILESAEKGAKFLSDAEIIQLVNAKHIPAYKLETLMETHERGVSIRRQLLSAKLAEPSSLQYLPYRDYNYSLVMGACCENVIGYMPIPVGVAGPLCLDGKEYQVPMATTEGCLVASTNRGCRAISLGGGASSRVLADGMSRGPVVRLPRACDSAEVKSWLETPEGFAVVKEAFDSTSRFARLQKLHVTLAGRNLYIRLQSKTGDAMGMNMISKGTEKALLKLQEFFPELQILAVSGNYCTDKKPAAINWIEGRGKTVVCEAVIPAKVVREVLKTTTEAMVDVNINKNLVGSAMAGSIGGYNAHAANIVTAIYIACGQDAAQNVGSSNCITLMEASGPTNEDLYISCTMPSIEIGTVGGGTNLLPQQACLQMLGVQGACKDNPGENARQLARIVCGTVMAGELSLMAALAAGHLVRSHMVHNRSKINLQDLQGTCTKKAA
Experimental: An example of a cell-free HMG-CoA reductase assay involves radiometric procedures described in Shum et al., Ther. Drug Monit. 20:41-49 (1998), incorporated herein by reference. Briefly, about 150 μg/mL of HMG-CoA reductase can be incubated with a candidate compound, together with about 12 μM [^14C]HMG-CoA and about 200 μM NADPH in about 200 μL 0.2M phosphate buffer (pH about 7.2) for about 0.5 h at about 37° C. The [^14C]mevalonate that forms can be converted under acidic conditions to [^14C]mevalonolactone and separated from un-reacted substrate, for example, by ion-exchange chromatography, and then quantified, for example, by liquid scintillation counting.
(§1) Table III below summarizes the results of in vitro assays described above for HMG-CoA and/or MAP kinase inhibitory activity of specific pyrazole compounds.

[4] = test system: LPS-induced TNF-α release from human peripheral blood mononuclear cells; test: Whole cell LPS-stimulated TNF-α release assay; type: cell-based
Experimental: The procedure as described in Welker et al., Int. Arch. Allergy and Immunol. 109:110-115 (1996) can be followed. Briefly, a candidate compound and/or vehicle can be preincubated with human peripheral blood mononuclear leukocytes (PBML, 5×10^5/ml) cells in AIM-V medium pH 7.4 for 2 hours. Lipopolysaccharide (LPS, 25 ng/ml) can be added to stimulate the cells, which can be incubated overnight at 37° C. TNF-α cytokine levels in the conditioned medium can then be quantitated using a sandwich ELISA kit.
as §1

[5] = in vitro, human p38α MAP kinase, Table I, read-out: IC50 p38α
[6] = Homo sapiens, PBMC, read-out: IC50 Whole cell
[7] = inhibition of phosphorylation of myelin basic protein by recombinant human p38α MAP kinase by 50%, Table III, read-out: IC50 p38α MAPK
[8] = Homo sapiens, PBMC; read-out: IC50 Whole cell

T1 sequence (Q16539 whole entry): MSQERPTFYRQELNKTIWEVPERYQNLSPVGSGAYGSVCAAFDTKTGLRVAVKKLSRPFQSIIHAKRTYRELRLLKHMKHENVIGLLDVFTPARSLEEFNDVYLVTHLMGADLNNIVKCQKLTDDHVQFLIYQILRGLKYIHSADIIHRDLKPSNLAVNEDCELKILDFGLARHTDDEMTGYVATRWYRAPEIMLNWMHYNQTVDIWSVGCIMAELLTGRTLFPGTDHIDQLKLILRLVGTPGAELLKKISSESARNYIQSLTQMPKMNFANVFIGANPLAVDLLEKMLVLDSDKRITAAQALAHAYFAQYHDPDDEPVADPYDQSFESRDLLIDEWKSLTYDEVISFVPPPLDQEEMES

Compound: CC[C@H](C)C(=O)O[C@H]1C[C@H](O)C=C2C=C[C@H](C)[C@H](CC[C@@H](O)C[C@@H](O)CC(=O)O)[C@H]21 [Pravastatin sodium]
% Inh. of oxazolone-induced mouse ear swelling ([1]; dose 2 × 0.3 mg): 24%

Compound: O=C([O-])C[C@H](O)C[C@H](O)/C=C/c1c(C2CC2)nc2ccccc2c1-c1ccc(F)cc1.O=C([O-])C[C@H](O)C[C@H](O)/C=C/c1c(C2CC2)nc2ccccc2c1-c1ccc(F)cc1.[Ca+2] [Pitavastatin calcium]
% Inh. of oxazolone-induced mouse ear swelling ([1]; dose 2 × 0.3 mg): 9%
% Inh. of oxazolone-induced mouse ear swelling ([1]; dose 2 × 2 mg): 60%

Compound: CC(C)c1c(C(=O)Nc2ccccc2)c(-c2ccccc2)c(-c2ccc(F)cc2)n1CC[C@@H](O)C[C@@H](O)CC(=O)O [Atorvastatin sodium]
% Inh. of oxazolone-induced mouse ear swelling ([1]; dose 2 × 0.3 mg): 9%
% Inh. of oxazolone-induced mouse ear swelling ([1]; dose 2 × 1 mg): 31%
% Inh. of oxazolone-induced mouse ear swelling ([1]; dose 2 × 2 mg): 63%

Compound: CC(C)c1c(C(=O)Nc2ccccc2)c(-c2ccccc2)c(-c2ccc(F)cc2)n1CC[C@@H](O)C[C@@H](O)CC(=O)O [Atorvastatin calcium]
IC50 [2, 5]: > 100 µM

Compound: O=C(O)C[C@H](O)C[C@H](O)/C=C/c1c(-c2ccccc2)nn(-c2ccnc(Nc3ccccc3)n2)c1-c1ccccc1 [Example 11a, (3R,5S,E)-7-(3,5-diphenyl-1-(2-(phenylamino)pyrimidin-4-yl)-1H-pyrazol-4-yl)-3,5-dihydroxyhept-6-enoic acid calcium salt]
IC50 [3]: 0.033 µM
IC50 [4, 6]: 31 µM
IC50 [2, 7]: 11 µM

Compound: COc1nccc(-n2nc(C(C)C)c(/C=C/[C@@H](O)C[C@@H](O)CC(=O)O)c2-c2cccc(C(F)(F)F)c2)n1 [Example 11e, (3R,5S,E)-3,5-dihydroxy-7-(3-isopropyl-1-(2-methoxypyrimidin-4-yl)-5-(3-(trifluoromethyl)phenyl)-1H-pyrazol-4-yl)hept-6-enoic acid calcium salt]
IC50 [3]: 0.002 µM
IC50 ([4]; inhibition of LPS-induced TNF-α release from human peripheral blood mononuclear cells by 50%; read-out: IC50 Whole cell): 30 µM
IC50 [2, 7]: 36 µM

Compound: CC(C)c1nc(N(C)S(C)(=O)=O)nc(-c2ccc(F)cc2)c1/C=C/[C@@H](O)C[C@@H](O)CC(=O)O [Rosuvastatin sodium]
% Inh. of oxazolone-induced mouse ear swelling ([1]; dose 2 × 0.3 mg): 20%

IC50 [2, 5]: > 100 µM
Compound: Simvastatin sodium

Compound: O=C(O)C[C@H](O)C[C@H](O)CCc1c(-c2ccccc2)nn(-c2ccnc(Nc3ccccc3)n2)c1-c1ccccc1 [Example 11c, (3R,5R)-7-(3,5-diphenyl-1-(2-(phenylamino)pyrimidin-4-yl)-1H-pyrazol-4-yl)-3,5-dihydroxyheptanoic acid]
IC50 [3]: > 0.1 µM
IC50 [4, 8]: 18 µM

Compound: O=C1C[C@H](O)C[C@@H](CCc2c(-c3ccccc3)nn(-c3ccnc(Nc4ccccc4)n3)c2-c2ccccc2)O1 [Example 11d, (4R,6R)-6-(2-(3,5-diphenyl-1-(2-(phenylamino)pyrimidin-4-yl)-1H-pyrazol-4-yl)ethyl)-4-hydroxy-tetrahydropyran-2-one]
IC50 [4, 8]: 11 µM
IC50 [2, 7]: 8 µM

IC50 [2, 5]: ~20 µM and 20 µM
Compound: CC(C)c1c(C(=O)Nc2ccccc2)c(-c2ccccc2)c(-c2ccc(F)cc2)n1CC[C@@H]1C[C@@H](O)CC(=O)O1 [Atorvastatin lactone]
anti-inflammatory activity in ear swelling model, comparison in words ([1]; observations on Table II): most potent anti-inflammatory activity in this assay
% Inh. of oxazolone-induced mouse ear swelling ([1]; dose 2 × 0.3 mg): 40%
% Inh. of oxazolone-induced mouse ear swelling ([1]; dose 2 × 0.3 mg, listed as atorvastatin lactone): 50% and 58% and 40%
% Inh. of oxazolone-induced mouse ear swelling ([1]; dose 2 × 1 mg): 58%
% Inh. of oxazolone-induced mouse ear swelling ([1]; dose 2 × 2 mg): 50%

Compound: O=C1C[C@H](O)C[C@@H](/C=C/c2c(-c3ccccc3)nn(-c3ccnc(Nc4ccccc4)n3)c2-c2ccccc2)O1 [Example 11b, (4R,6S,E)-6-(2-(3,5-diphenyl-1-(2-(phenylamino)pyrimidin-4-yl)-1H-pyrazol-4-yl)vinyl)-4-hydroxy-tetrahydropyran-2-one]
IC50 [4, 8]: 21 µM
IC50 [2, 7]: 6 µM

Compound: COc1ccc2c(c1)c(CC(=O)O)c(C)n2C(=O)c1ccc(Cl)cc1 [Indomethacin]
% Inh. of oxazolone-induced mouse ear swelling ([1]; dose 2 × 0.3 mg): 44%

IC50 [4, 8]: 16 µM
IC50 [2, 7]: > 100 µM
Compound: COc1nccc(-n2nc(C(C)C)c(/C=C/[C@@H]3C[C@@H](O)CC(=O)O3)c2-c2cccc(C(F)(F)F)c2)n1 [Example 11f, (4R,6S,E)-4-hydroxy-6-(2-(3-isopropyl-1-(2-methoxypyrimidin-4-yl)-5-(3-(trifluoromethyl)phenyl)-1H-pyrazol-4-yl)vinyl)-tetrahydropyran-2-one]

IC50 [2, 5]: 92 µM
Compound: CC(C)c1nc(N(C)S(C)(=O)=O)nc(-c2ccc(F)cc2)c1/C=C/[C@@H](O)C[C@@H](O)CC(=O)O [Rosuvastatin calcium]

Compound: O=C(O)C[C@H](O)C[C@H](O)/C=C/c1cnn(-c2ccnc(Nc3ccccc3)n2)c1-c1cccc(C(F)(F)F)c1 [Example 11g, (3R,5S,E)-3,5-dihydroxy-7-(1-(2-(phenylamino)pyrimidin-4-yl)-5-(3-(trifluoromethyl)phenyl)-1H-pyrazol-4-yl)hept-6-enoic acid calcium salt]
IC50 [3]: > 0.1 µM
IC50 [4, 6]: 52 µM
IC50 [2, 7]: 14 µM

Compound: CCC(C)c1nn(-c2ccnc(Nc3ccccc3)c2)c(-c2ccc(F)cc2)c1/C=C/[C@@H]1C[C@@H](O)CC(=O)O1 (some centres unmarked) [Example 10b]
IC50 [4, 8]: 14 µM
IC50 [2, 7]: 6 µM

IC50 [2, 5]: ~34 µM and 34 µM
Compound: CC(C)n1c(/C=C/C(O)CC(O)CC(=O)O)c(-c2ccc(F)cc2)c2ccccc21 (centres unmarked) [Fluvastatin sodium]
% Inh. of oxazolone-induced mouse ear swelling ([1]; dose 2 × 0.3 mg): 28%
